Experimental data published in US11154858B2, “Microfluidic tissue development systems” (University of Pittsburgh—Of the Commonwealth System of …, priority 2015, dated 2021).

What was measured:
[1] = test system: chondrocytes in the cartilage chamber; test: RT-PCR marker expression, chondrocyte response in cartilage (top) chamber of the bioreactor; type: cell-based; conditions: weeks 3 and 4 (1 nM estradiol + 10 nM progesterone; 0.1 nM estradiol + 50 nM progesterone)
Experimental: FIGS. 17-20 are graphs that show differential expression of markers (as determined by RT-PCR) for a control medium that contained no estrogen or progesterone (first bar), and then different concentrations of hormones supplied to one or the other of the bioreactor chambers during week 1 (w1: 0.1 nM estradiol), week 2 (w2: 1 nM estradiol), week 3 (w3: 1 nM estradiol and 10 nM progesterone), and week 4 (w4: 0.1 nM estradiol and 50 nM progesterone). […] FIGS. 17-18 show differential expression of markers (as determined by RT-PCR) for a control medium that contained no estrogen or progesterone (first bar), and then different concentrations of hormones supplied to the chambers during week 1 (w1: 0.1 nM estradiol), week 2 (w2: 1 nM estradiol), week 3 (w3: 1 nM estradiol and 10 nM progesterone), and week 4 (w4: 0.1 nM estradiol and 50 nM progesterone).

[2] = not told
Description: The porosity and permeability of the latter have been estimated via Boyle's pycnometer and scanning electron microscopy (SEM) analysis.

Compound	expression of cartilage anabolic markers, progesterone progressively added [1]	Permeability [2] [m^2]
CC(=O)[C@H]1CC[C@H]2[C@@H]3CCC4=CC(=O)CC[C@]4(C)[C@H]3CC[C@]12C [progesterone]	downregulation is still present	–
poly-L-lactate [PLLA scaffold]	–	3.234e−09
